≈ marks a conversion by molar mass, not a printed value. Read-outs that look alike come from different tables or passages of the source.
Columns and labels:
human (hACC2) = human (hACC2) (Homo sapiens, UniProt O00763); test: In vitro ACC inhibition assay (ADP-Glo), hACC2; format: biochemical; details: Table 2b, additional results, 5 nM ACC2, 20 μM ATP, 20 μM acetyl-CoA
Description: The detailed procedure is as follows. […] 10 μL ADP glo reagent was added. […] 20 μL kinase detection reagent was added.

C. albicans = test: Antifungal Activity Assay (broth microtiter MIC), C. albicans; format: cell-based, Candida albicans; details: Candida albicans, ATCC90028, 48 h
Outline: (§1)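 CLSI M27-A3 broth microdilution in RPMI 1640+MOPS, final inoculum 2.5×10^3 CFU/mL from overnight Sabouraud cultures grown at 35 °C. MIC read visually at 48 h against growth control.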

C. krusei = test: Antifungal Activity Assay (broth microtiter MIC), C. krusei; format: cell-based, Candida krusei; details: Pichia kudriavzevii, ATCC6258, 48 h
Outline: as §1

C. parapsilosis = test: Antifungal Activity Assay (broth microtiter MIC), C. parapsilosis; format: cell-based, Candida parapsilosis; details: Lodderomyces parapsilosis, ATCC22019, 48 h
Outline: as §1

Botrtyis cinerea (Bc) = test: Growth inhibition assay of fungal pathogens, Bc; format: cell-based; details: 48 h, growth inhibition at 48 hours vs 2% DMSO control
Outline: (§2)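 Spores diluted in 17% V8 liquid media and incubated with compound at final 50, 10, 2 ppm or 2, 0.4, 0.08 ppm (2% DMSO). OD600 plus visual ratings at 24 and 48 hours, blank-subtracted; percent growth inhibition from 48 h readings relative to 2% DMSO control.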

[1] = test system: Collectotrichum graminicola (Cg); test: Growth inhibition assay of fungal pathogens, Cg; format: cell-based; details: 48 h, growth inhibition at 48 hours vs 2% DMSO control
Outline: as §2

Diplodia maydis (Dm) = test: Growth inhibition assay of fungal pathogens, Dm; format: cell-based; details: Stenocarpella maydis, 48 h, growth inhibition at 48 hours vs 2% DMSO control
Outline: as §2

[2] = test system: Fusarium moniliforme (Fm); test: Growth inhibition assay of fungal pathogens, Fm; format: cell-based; details: Fusarium verticillioides, 48 h, read-out: Concentration at 90% Inhibition Fm
Outline: as §2

[3] = test system: Fusarium virguliforme (Fv); test: Growth inhibition assay of fungal pathogens, Fv; format: cell-based; details: 48 h
Outline: as §2

[4] = test system: Phytophthora capsici (Pc); test: Growth inhibition assay of fungal pathogens, Pc; format: cell-based; details: 48 h
Outline: as §2

Rhizoctonia solani (Rs) = test: Growth inhibition assay of fungal pathogens, Rs; format: cell-based; details: 48 h
Septoria tritici (St) = test: Growth inhibition assay of fungal pathogens, St; format: cell-based; details: Zymoseptoria tritici, 48 h, growth inhibition at 48 hours vs 2% DMSO control
Outline: as §2

fungal (fACC2) = fungal (fACC2) (UniProt Q00955); details: read-out: fACC2 (in vitro ACC2 Inhibition Assay, IC50); Table 2b, additional results; ADP-Glo, 5 nM ACC2, 20 μM ATP, 20 μM acetyl-CoA
Sequence of fungal (fACC2) (Q00955 whole entry): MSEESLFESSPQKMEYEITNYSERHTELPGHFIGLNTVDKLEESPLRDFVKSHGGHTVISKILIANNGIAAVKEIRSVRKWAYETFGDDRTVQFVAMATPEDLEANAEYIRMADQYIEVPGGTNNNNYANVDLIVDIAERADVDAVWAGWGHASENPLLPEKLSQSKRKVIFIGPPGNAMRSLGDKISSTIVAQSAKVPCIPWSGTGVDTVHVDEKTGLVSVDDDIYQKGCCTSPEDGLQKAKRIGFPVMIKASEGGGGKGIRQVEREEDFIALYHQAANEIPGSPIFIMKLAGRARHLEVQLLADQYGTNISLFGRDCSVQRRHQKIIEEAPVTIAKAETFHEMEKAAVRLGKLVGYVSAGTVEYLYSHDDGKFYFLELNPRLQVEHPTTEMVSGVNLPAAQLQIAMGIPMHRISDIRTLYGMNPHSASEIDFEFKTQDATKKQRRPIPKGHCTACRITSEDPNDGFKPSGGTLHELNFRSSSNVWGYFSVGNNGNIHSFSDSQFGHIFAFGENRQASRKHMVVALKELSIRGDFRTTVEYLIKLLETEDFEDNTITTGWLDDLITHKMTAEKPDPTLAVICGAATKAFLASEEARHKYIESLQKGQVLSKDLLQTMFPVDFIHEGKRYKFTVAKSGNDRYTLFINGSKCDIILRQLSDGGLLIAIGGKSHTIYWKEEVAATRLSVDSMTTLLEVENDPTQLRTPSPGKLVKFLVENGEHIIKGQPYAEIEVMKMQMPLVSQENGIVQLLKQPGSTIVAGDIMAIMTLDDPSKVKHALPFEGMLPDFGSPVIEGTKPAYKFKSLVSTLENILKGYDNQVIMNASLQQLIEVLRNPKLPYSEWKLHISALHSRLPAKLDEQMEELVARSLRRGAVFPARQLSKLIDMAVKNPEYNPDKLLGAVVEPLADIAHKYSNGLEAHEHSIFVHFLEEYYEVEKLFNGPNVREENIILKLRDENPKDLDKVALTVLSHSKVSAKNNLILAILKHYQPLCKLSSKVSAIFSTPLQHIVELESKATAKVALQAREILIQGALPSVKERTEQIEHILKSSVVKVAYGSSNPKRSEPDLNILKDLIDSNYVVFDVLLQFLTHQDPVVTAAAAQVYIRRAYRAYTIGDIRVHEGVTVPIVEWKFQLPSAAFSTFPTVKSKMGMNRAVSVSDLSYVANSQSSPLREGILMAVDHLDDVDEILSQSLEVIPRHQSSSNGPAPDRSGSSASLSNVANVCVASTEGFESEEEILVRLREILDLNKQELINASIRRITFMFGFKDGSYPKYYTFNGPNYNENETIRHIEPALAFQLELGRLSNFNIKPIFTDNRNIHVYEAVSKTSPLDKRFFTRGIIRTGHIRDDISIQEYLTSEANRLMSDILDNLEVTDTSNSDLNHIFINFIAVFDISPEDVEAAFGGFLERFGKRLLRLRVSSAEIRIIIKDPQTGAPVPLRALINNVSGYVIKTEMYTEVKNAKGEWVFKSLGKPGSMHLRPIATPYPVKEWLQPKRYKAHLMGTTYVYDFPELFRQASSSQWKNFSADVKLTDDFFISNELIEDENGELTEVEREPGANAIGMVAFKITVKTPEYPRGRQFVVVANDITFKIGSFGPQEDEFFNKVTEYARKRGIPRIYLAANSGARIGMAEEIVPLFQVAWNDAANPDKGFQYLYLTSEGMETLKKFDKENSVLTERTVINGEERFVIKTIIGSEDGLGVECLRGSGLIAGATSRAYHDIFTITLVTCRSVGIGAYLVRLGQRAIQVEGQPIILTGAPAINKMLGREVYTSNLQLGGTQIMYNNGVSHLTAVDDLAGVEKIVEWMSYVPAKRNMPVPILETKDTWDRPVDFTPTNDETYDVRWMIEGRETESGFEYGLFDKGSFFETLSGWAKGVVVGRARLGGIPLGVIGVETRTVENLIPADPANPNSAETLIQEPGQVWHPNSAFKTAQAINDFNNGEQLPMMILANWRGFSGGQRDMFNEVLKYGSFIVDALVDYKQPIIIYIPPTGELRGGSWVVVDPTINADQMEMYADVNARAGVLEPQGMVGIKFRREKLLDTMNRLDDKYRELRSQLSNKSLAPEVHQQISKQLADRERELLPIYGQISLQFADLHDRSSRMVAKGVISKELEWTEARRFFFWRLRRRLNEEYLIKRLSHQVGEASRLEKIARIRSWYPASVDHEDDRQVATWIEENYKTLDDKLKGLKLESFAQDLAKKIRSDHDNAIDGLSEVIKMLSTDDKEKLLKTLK

[5] = Table 3b (additional results), ATCC 90028, 3 replicates, MIC recorded at 48 h, read-out: MIC, C. albicans ATCC 90028
[6] = Table 3b (additional results), ATCC 6258, 3 replicates, MIC recorded at 48 h, read-out: MIC, C. krusei ATCC 6258
[7] = Table 3b (additional results), ATCC 22019, 3 replicates, MIC recorded at 48 h, read-out: MIC, C. parapsilosis ATCC 22019
[8] = Botrtyis cinerea, read-out: Concentration at 90% Inhibition Bc
[9] = Collectotrichum graminicola, read-out: Concentration at 90% Inhibition Cg
[10] = Diplodia maydis, read-out: Concentration at 90% Inhibition Dm
[11] = Fusarium moniliforme, growth inhibition at 48 hours vs 2% DMSO control
[12] = growth inhibition at 48 hours vs 2% DMSO control, read-out: Concentration at 90% Inhibition Fv
[13] = growth inhibition at 48 hours vs 2% DMSO control, read-out: Concentration at 90% Inhibition Pc
[14] = mycelial plugs, growth inhibition at 48 hours vs 2% DMSO control, read-out: Concentration at 90% Inhibition Rs
[15] = Septoria tritici, read-out: Concentration at 90% Inhibition St
[16] = read-out: MIC, C. albicans ATCC 90028, Table 3b (additional results), 3 replicates, MIC recorded at 48 h
[17] = read-out: MIC, C. krusei ATCC 6258, Table 3b (additional results), 3 replicates, MIC recorded at 48 h
[18] = read-out: MIC, C. parapsilosis ATCC 22019, Table 3b (additional results), 3 replicates, MIC recorded at 48 h
[19] = read-out: Concentration at 90% Inhibition Bc, Botrtyis cinerea
[20] = read-out: Concentration at 90% Inhibition Cg, Collectotrichum graminicola
[21] = read-out: Concentration at 90% Inhibition Dm, Diplodia maydis
[22] = read-out: Concentration at 90% Inhibition Fv, Fusarium virguliforme, growth inhibition at 48 hours vs 2% DMSO control
[23] = read-out: Concentration at 90% Inhibition Pc, Phytophthora capsici, growth inhibition at 48 hours vs 2% DMSO control
[24] = read-out: Concentration at 90% Inhibition Rs, Rhizoctonia solani, mycelial plugs, growth inhibition at 48 hours vs 2% DMSO control
[25] = read-out: Concentration at 90% Inhibition St, Septoria tritici

Sequence of human (hACC2) (O00763 whole entry): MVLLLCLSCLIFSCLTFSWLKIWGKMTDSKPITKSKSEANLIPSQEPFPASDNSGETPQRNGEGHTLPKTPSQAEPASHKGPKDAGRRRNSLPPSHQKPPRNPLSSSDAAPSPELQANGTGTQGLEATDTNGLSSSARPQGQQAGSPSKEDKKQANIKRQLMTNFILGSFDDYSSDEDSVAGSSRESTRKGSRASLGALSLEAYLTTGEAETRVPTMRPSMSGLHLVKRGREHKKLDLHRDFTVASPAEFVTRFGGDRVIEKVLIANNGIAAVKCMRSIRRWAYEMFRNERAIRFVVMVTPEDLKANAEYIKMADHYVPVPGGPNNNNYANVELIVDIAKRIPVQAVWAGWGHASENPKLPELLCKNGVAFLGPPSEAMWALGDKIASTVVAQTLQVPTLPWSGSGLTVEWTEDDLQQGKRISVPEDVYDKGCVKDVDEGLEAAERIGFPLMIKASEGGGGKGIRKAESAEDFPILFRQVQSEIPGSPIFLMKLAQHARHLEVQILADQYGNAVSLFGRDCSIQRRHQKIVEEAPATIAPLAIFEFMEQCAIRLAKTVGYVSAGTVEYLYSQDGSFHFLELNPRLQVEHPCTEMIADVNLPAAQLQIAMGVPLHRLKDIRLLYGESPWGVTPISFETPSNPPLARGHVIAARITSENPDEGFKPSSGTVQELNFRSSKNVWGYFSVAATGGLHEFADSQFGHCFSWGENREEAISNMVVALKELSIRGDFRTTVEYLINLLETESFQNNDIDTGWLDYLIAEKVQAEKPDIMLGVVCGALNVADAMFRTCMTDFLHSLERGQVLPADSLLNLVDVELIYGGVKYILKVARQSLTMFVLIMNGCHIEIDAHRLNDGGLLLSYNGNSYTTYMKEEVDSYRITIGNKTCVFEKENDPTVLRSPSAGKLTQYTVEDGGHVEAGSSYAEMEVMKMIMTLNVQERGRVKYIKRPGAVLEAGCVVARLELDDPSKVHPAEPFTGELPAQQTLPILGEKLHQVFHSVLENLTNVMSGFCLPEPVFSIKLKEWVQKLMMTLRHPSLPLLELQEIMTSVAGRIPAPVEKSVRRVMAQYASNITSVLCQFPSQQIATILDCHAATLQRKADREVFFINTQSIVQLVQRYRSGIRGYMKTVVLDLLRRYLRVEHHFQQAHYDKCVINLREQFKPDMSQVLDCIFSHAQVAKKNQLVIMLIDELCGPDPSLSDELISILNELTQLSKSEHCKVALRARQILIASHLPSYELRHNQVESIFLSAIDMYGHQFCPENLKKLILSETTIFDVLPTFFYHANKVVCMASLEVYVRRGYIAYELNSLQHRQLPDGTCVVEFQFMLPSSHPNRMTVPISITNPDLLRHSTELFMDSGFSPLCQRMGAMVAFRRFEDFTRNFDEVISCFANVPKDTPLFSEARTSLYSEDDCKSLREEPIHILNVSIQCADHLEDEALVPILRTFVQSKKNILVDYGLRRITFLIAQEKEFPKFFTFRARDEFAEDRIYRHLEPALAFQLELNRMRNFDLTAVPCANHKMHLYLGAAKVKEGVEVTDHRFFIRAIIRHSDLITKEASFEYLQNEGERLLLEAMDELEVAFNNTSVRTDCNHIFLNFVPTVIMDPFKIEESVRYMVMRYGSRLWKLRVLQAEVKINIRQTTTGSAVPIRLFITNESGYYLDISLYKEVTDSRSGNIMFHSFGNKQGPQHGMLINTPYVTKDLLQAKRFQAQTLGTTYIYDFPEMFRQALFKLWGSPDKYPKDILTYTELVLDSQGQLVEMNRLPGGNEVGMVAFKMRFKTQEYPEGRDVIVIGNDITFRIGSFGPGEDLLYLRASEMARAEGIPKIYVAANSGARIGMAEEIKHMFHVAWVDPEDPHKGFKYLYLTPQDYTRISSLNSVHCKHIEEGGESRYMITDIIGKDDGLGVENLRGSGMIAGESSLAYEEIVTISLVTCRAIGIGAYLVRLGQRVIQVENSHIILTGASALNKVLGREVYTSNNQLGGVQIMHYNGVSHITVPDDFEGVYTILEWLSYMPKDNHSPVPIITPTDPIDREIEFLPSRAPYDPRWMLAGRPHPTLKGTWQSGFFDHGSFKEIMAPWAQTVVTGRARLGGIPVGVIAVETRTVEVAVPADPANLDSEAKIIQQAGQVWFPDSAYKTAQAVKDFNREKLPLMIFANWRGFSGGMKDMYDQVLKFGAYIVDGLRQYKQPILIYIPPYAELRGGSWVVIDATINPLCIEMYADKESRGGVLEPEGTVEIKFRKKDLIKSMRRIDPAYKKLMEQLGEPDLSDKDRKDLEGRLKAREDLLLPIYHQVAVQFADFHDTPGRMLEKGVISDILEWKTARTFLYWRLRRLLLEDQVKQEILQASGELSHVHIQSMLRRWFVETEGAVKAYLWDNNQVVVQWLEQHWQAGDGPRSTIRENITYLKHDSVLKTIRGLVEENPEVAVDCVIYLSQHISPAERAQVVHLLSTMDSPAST

SMILES | IC50 (human (hACC2)) [nM] | MIC (C. albicans; [5]) [µg/mL] | MIC (C. krusei; [6]) [µg/mL] | MIC (C. parapsilosis; [7]) [µg/mL] | IC90 (Botrtyis cinerea (Bc); [8]) [µg/mL] | IC90 [1, 9] [µg/mL] | IC90 (Diplodia maydis (Dm); [10]) [µg/mL] | IC90 [2, 11] [µg/mL] | IC90 [3, 12] [µg/mL] | IC90 [4, 13] [µg/mL] | IC90 (Rhizoctonia solani (Rs); [14]) [µg/mL] | IC90 (Septoria tritici (St); [15]) [µg/mL] | IC50 (fungal (fACC2)) [nM] | other results
COc1ccc(F)cc1[C@H](Cn1c(=O)n(C(C)(C)C(=O)NC(C)C)c(=O)c2c(C)c(-n3nccn3)sc21)O[C@H]1C[C@@H](O)C1 [Compound I-239] | 10 to 40 | 0.25 to 1 (≈ 0.407 to 1.63 µM) | 0.25 to 1 (≈ 0.407 to 1.63 µM) | 0.25 to 1 (≈ 0.407 to 1.63 µM) | 2 (≈ 3.25 µM) | 2 (≈ 3.25 µM) | 2 (≈ 3.25 µM) | 0.08 (≈ 0.13 µM) | 0.4 (≈ 0.651 µM) | > 50 | 0.08 (≈ 0.13 µM) | > 50 | 1 to 5 | 
CCc1ccc(F)cc1[C@@H](Cn1c(=O)n(C(C)(C)C(=O)NC(C)C)c(=O)c2c(C)c(-n3nccn3)sc21)OC[C@H](C)C#N [Compound I-245] | 1 to 5 | 2.01 to 4 (≈ 3.3 to 6.56 µM) | > 4.01 | 2.01 to 4 (≈ 3.3 to 6.56 µM) | 0.08 (≈ 0.131 µM) | 0.08 (≈ 0.131 µM) | 2 (≈ 3.28 µM) | 0.08 (≈ 0.131 µM) | 0.08 (≈ 0.131 µM) | > 50 | 0.08 (≈ 0.131 µM) | > 50 | 0.3 to 1 | 
Cc1c(-n2nccn2)sc2c1c(=O)n(C(C)(C)C(=O)NC(C)C)c(=O)n2C[C@H](OCCC#N)c1cc(F)ccc1O [Compound I-246] | 1 to 5 | > 4.01 | 2.01 to 4 (≈ 3.44 to 6.85 µM) | 2.01 to 4 (≈ 3.44 to 6.85 µM) | 2 (≈ 3.43 µM) | 2 (≈ 3.43 µM) | 10 (≈ 17.1 µM) | 0.4 (≈ 0.685 µM) | 2 (≈ 3.43 µM) | 10 (≈ 17.1 µM) | 0.4 (≈ 0.685 µM) | > 50 | 0.3 to 1 | 
CCc1ccc(F)cc1[C@@H](Cn1c(=O)n(C(C)(C)C(=O)NC(C)C)c(=O)c2c(C)c(-n3nccn3)sc21)OC[C@@H](C)C#N [Compound I-247] | 1 to 5 | 2.01 to 4 (≈ 3.3 to 6.56 µM) | > 4.01 | 2.01 to 4 (≈ 3.3 to 6.56 µM) | 0.4 (≈ 0.656 µM) | 0.08 (≈ 0.131 µM) | 2 (≈ 3.28 µM) | 0.08 (≈ 0.131 µM) | 0.4 (≈ 0.656 µM) | > 50 | 0.08 (≈ 0.131 µM) | > 50 | 1 to 5 | 
COc1ccc(F)cc1[C@H](Cn1c(=O)n(C(C)(C)C(=O)NC(C)C)c(=O)c2c(C)c(-n3nccn3)sc21)OCCS(C)(=O)=O [Compound I-248] | 10 to 40 |  |  |  |  |  |  |  |  |  |  |  | 0.3 to 1 | MIC (C. albicans; [16]): 1.01 to 2 µg/mL (≈ 1.55 to 3.07 µM); MIC (C. krusei; [17]): 1.01 to 2 µg/mL (≈ 1.55 to 3.07 µM); MIC (C. parapsilosis; [18]): 1.01 to 2 µg/mL (≈ 1.55 to 3.07 µM); IC90 (Botrtyis cinerea (Bc); [19]): 2 µg/mL (≈ 3.07 µM); IC90 [1, 20]: 0.4 µg/mL (≈ 0.615 µM); IC90 (Diplodia maydis (Dm); [21]): 0.4 µg/mL (≈ 0.615 µM); IC90 [2]: 0.4 µg/mL (≈ 0.615 µM); IC90 [3, 22]: 2 µg/mL (≈ 3.07 µM); IC90 [4, 23]: 10 µg/mL (≈ 15.4 µM); IC90 (Rhizoctonia solani (Rs); [24]): 0.08 µg/mL (≈ 0.123 µM); IC90 (Septoria tritici (St); [25]): > 50 µg/mL
COc1ccccc1[C@H](O)Cn1c(=O)n(C(C)(C)C(=O)NC(C)C)c(=O)c2c(C)c(-n3nccn3)sc21 [Compound I-251] | 10 to 40 |  |  |  |  |  |  |  |  |  |  |  | 1 to 5 | MIC (C. albicans; [16]): 1.01 to 2 µg/mL (≈ 1.92 to 3.8 µM); MIC (C. krusei; [17]): 0.25 to 1 µg/mL (≈ 0.475 to 1.9 µM); MIC (C. parapsilosis; [18]): 0.25 to 1 µg/mL (≈ 0.475 to 1.9 µM); IC90 (Botrtyis cinerea (Bc); [19]): 10 µg/mL (≈ 19 µM); IC90 [1, 20]: > 50 µg/mL; IC90 (Diplodia maydis (Dm); [21]): > 50 µg/mL; IC90 [2]: 2 µg/mL (≈ 3.8 µM); IC90 [3, 22]: 2 µg/mL (≈ 3.8 µM); IC90 [4, 23]: > 50 µg/mL; IC90 (Rhizoctonia solani (Rs); [24]): 2 µg/mL (≈ 3.8 µM); IC90 (Septoria tritici (St); [25]): > 50 µg/mL
CCNC(=O)[C@@H](C)n1c(=O)c2c(C)c(-n3nccn3)sc2n(C[C@H](OCCC#N)c2cc(F)ccc2OC)c1=O [Compound I-252] | 1 to 5 | > 4.01 | > 4.01 | 2.01 to 4 (≈ 3.53 to 7.02 µM) | 2 (≈ 3.51 µM) | 0.08 (≈ 0.14 µM) | 0.4 (≈ 0.702 µM) | 0.08 (≈ 0.14 µM) | 0.4 (≈ 0.702 µM) | 10 (≈ 17.6 µM) | 0.08 (≈ 0.14 µM) | > 50 | 1 to 5 | 

From patent US10800791B2, “Triazole ACC inhibitors and uses thereof” (Gilead Apollo, LLC, priority 2015, dated 2020)
